Laboratory results reported in US10689392B2, “Anti-cancer compounds targeting ral GTPases and methods of using the same” (The Regents of the University of Colorado, a body corporate, priority 2011, dated 2020).
Read-outs that look alike come from different tables or passages of the source.

Key:
[1] = tested on: MiaPaCa2 pancreatic cell line; details: cited from earlier work
[2] = tested on: bladder cancer cell lines CRL2169, J82, KU7, MGHU4, LULU2, UMUC3; test: Combination testing with MEK inhibitor AZD6244 in bladder cancer cell lines; format: cell-based, human; details: in conjunction with MEK inhibitor AZD6244, bladder cancer cell lines
[3] = target: T1, RalB (Homo sapiens, UniProt P11234); test: RalB activity in H2122 xenograft tumors, RalBP1 pull-down; format: in vivo, mice; details: single IP dose 50 mg/Kg, tumors collected 2 h (RBC10) or 3 h (RBC8) after injection, FIG. 12B
T1 construct: Xenograft tumors were collected 2 h (RBC10) or 3 h (RBC8) after injection; from tissue; host or cells: H2122 human lung cancer xenograft tumours grown subcutaneously in female nude mice
T1 sequence (P11234 1-206): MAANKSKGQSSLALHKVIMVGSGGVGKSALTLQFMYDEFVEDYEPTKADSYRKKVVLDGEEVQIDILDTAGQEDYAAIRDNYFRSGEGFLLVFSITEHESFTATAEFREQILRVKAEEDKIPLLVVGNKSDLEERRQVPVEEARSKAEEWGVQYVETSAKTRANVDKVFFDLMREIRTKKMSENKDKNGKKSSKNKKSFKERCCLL
Description: (§1) Human lung cancer cell line H2122 was inoculated subcutaneously into female nude mice and allowed to grow until tumors reached an average size of 200 mm^3. Mice were given a single IP dose of 50 mg/Kg RBC8, RBC10, or DMSO control. Xenograft tumors were collected 2 h (RBC10) or 3 h (RBC8) after injection. RalA and RalB activity in tumors were measured by pull-down assay using RalBP1 agarose beads and normalized to total protein.

[4] = target: T2, RalA (Homo sapiens, UniProt P11233); test: RalA activity in H2122 xenograft tumors, RalBP1 pull-down; format: in vivo, mice; details: single IP dose 50 mg/Kg, tumors collected 2 h (RBC10) or 3 h (RBC8) after injection, FIG. 12A
T2 construct: Xenograft tumors were collected 2 h (RBC10) or 3 h (RBC8) after injection; from tissue; host or cells: H2122 human lung cancer xenograft tumours grown subcutaneously in female nude mice
T2 sequence (P11233 1-206): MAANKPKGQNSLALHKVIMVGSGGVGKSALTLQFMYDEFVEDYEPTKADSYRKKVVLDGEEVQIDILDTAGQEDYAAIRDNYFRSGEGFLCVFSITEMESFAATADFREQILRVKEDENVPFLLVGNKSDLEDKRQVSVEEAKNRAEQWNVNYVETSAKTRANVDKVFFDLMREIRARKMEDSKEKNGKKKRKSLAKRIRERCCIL
Description: as §1

[5] = Pharmacokinetics in mice after intraperitoneal or oral administration; format: in vivo; details: mouse, blood; for half-life: read-out: t½ (converted)
Description: The pharmacokinetics of certain Ral-GTPase inhibiting compounds of the invention were evaluated in mice. Following intraperitoneal injection or oral administration, blood samples were collected over several hours and drug concentrations were evaluated by capillary coupled with Time of Flight (TOF) spectrometry.

[6] = tested on: lung cancer cell lines A549, H2009, H358, H460, SW1573; test: Combination testing with MEK inhibitor AZD6244 in lung cancer cell lines; format: cell-based, human; details: in conjunction with MEK inhibitor AZD6244, lung cancer cell lines

Structure (SMILES)	in vitro growth and survival [1]	efficacy of the combination with AZD6244 [2]	RalB activity in tumors [3]	RalA activity in tumors [4]	AUC(0-inf) ([5]; intraperitoneal (IP)) [ng·h/mL]	AUC(0-t) ([5]; intraperitoneal (IP)) [ng·h/mL]	Cmax ([5]; intraperitoneal (IP)) [µM]	Tmax ([5]; intraperitoneal (IP)) [h]	half-life ([5]; intraperitoneal (IP)) [h]	AUC(0-inf) ([5]; oral (PO)) [ng·h/mL]	AUC(0-t) ([5]; oral (PO)) [ng·h/mL]	Cmax ([5]; oral (PO)) [µM]	Tmax ([5]; oral (PO)) [h]	half-life ([5]; oral (PO)) [h]	efficacy of the combination with AZD6244 [6]
COC(=O)[C@H](CC(C)C)NC(=O)N1CCN(Cc2nc[nH]c2C)C(=O)[C@@H]1Cc1ccccc1 [GGTI-2417]	inhibit the in vitro growth and survival	–	–	–	–	–	–	–	–	–	–	–	–	–	–
CCCCC(=O)N1c2ccccc2NC2=C(C(=O)CCC2)C1c1ccccc1Cl (stereo not drawn) [RBC10, 11-(2-chlorophenyl)-10-pentanoyl-2,3,4,5,10,11-hexahydro-1H-dibenzo[b,e][1,4]diazepin-1-one]	–	synergistic efficacy	inhibition of RalB	inhibition of RalA	30500	30300	23.4	1	3.7	5220	4750	2.3	1	1.9	synergistic efficacy
